Calls of active or inactive are those of the source.
Key:
Type in all cases: functional
[1] = target: DNA dC->dU-editing enzyme APOBEC-3G (Homo sapiens, UniProt Q9HC16); experiment: inhibition of APOBEC3G ssDNA deamination – biochemical, fluorescence, single-stranded DNA substrate, SAR follow-up (AID 602136); settings: read-out: IC50_Mean
[2] = target: DNA dC->dU-editing enzyme APOBEC-3A (Homo sapiens, UniProt P31941); experiment: SAR analysis of small molecule inhibitors of APOBEC3A DNA Deaminase via a fluorescence-based single-stranded DNA deaminase assay.; settings: read-out: IC50_Mean
[3] = target: T1, High affinity choline transporter 1 (Homo sapiens, UniProt Q9GZV3); experiment: human choline transporter blockers, potency – cell-based, 5-point CRC, membrane potential dye, dose response (AID 504840)
T1 sequence (Q9GZV3 whole entry): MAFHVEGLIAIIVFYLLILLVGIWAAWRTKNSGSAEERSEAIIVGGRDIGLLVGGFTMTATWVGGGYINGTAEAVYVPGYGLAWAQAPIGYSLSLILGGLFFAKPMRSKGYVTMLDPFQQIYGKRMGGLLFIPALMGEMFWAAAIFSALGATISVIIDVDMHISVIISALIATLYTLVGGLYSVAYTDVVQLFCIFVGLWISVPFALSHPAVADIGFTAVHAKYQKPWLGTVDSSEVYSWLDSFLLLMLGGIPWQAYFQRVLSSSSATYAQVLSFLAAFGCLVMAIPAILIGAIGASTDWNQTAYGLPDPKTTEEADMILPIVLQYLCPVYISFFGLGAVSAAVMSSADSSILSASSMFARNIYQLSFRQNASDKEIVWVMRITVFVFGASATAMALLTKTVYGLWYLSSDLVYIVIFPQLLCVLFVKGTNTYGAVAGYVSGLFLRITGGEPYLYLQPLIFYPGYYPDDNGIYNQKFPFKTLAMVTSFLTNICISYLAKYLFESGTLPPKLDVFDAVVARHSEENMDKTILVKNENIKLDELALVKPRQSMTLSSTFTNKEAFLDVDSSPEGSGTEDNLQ

[4] = target: T1, High affinity choline transporter 1; experiment: human choline transporter blockers, potency – cell-based, 10-point CRC, membrane potential dye, dose response (AID 588401);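 note: membrane potential dye fluorescence of choline-evoked depolarization via CHT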
[5] = target: T1, High affinity choline transporter 1; experiment: human choline transporter potentiators, potency – cell-based, 10-point CRC, membrane potential dye, dose response (AID 602376)
[6] = target: Dual specificity mitogen-activated protein kinase kinase 1 (Homo sapiens, UniProt Q02750); experiment: Navigating the Kinome. Panel member name: MAP2K1
[7] = target: ALK tyrosine kinase receptor (Homo sapiens, UniProt Q9UM73);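 note: ALK tested as one member of a kinase panel screen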
[8] = target: Tyrosine-protein kinase receptor TYRO3 (Homo sapiens, UniProt Q06418);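 note: TYRO3 value obtained as one member of a kinome-wide profiling panel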
[9] = target: Mitogen-activated protein kinase 8 (Homo sapiens, UniProt P45983);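 note: value comes from one member of a kinome-wide kinase profiling panel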
[10] = target: Serine/threonine-protein kinase pim-1 (Homo sapiens, UniProt P11309)
[11] = target: Tyrosine-protein kinase BTK (Homo sapiens, UniProt Q06187)
[12] = target: Fibroblast growth factor receptor 1 (Homo sapiens, UniProt P11362)
[13] = target: Serine/threonine-protein kinase TAO1 (Homo sapiens, UniProt Q7L7X3)
[14] = target: Glycogen synthase kinase-3 alpha (Homo sapiens, UniProt P49840);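 note: GSK3A result taken from a broad kinome-wide kinase panel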
[15] = target: Mitogen-activated protein kinase kinase kinase kinase 2 (Homo sapiens, UniProt Q12851);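 note: measured as one member of a kinome-wide kinase panel, with MAP4K2 as the panel entry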
[16] = target: Activated CDC42 kinase 1 (Homo sapiens, UniProt Q07912); experiment: Navigating the Kinome. Panel member name: ACK1
[17] = target: Platelet-derived growth factor receptor beta (Homo sapiens, UniProt P09619);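 note: value comes from a kinome panel, with PDGFRB tested as one panel member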
[18] = target: Serine/threonine-protein kinase Chk1 (Homo sapiens, UniProt O14757);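 note: measured as one member of a kinome-wide kinase profiling panel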
[19] = target: Vascular endothelial growth factor receptor 2 (Homo sapiens, UniProt P35968)
[20] = target: G protein-coupled receptor kinase 5 (Homo sapiens, UniProt P34947); experiment: Navigating the Kinome. Panel member name: GPRK5
[21] = target: Leucine-rich repeat serine/threonine-protein kinase 2 (Homo sapiens, UniProt Q5S007);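 note: value from a broad kinome-wide panel profiling study in which LRRK2 was one of the kinases tested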
[22] = target: Cyclin-dependent kinase 19 (Homo sapiens, UniProt Q9BWU1); experiment: Navigating the Kinome. Panel member name: CDC2L6
[23] = target: Tyrosine-protein kinase Fyn (Homo sapiens, UniProt P06241)
[24] = target: Serine/threonine-protein kinase Nek2 (Homo sapiens, UniProt P51955)
[25] = target: Cyclin-dependent kinase 8 (Homo sapiens, UniProt P49336); experiment: Navigating the Kinome. Panel member name: CDK8
[26] = target: Glycogen synthase kinase-3 beta (Homo sapiens, UniProt P49841);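 note: value comes from a broad kinome profiling panel, with GSK3B as the panel member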
[27] = target: Dual specificity mitogen-activated protein kinase kinase 2 (Homo sapiens, UniProt P36507); experiment: Navigating the Kinome. Panel member name: MAP2K2
[28] = target: Inhibitor of nuclear factor kappa-B kinase subunit epsilon (Homo sapiens, UniProt Q14164); experiment: Navigating the Kinome. Panel member name: IKBKE

Chain of Cyclin-dependent kinase 19 (Q9BWU1 whole entry): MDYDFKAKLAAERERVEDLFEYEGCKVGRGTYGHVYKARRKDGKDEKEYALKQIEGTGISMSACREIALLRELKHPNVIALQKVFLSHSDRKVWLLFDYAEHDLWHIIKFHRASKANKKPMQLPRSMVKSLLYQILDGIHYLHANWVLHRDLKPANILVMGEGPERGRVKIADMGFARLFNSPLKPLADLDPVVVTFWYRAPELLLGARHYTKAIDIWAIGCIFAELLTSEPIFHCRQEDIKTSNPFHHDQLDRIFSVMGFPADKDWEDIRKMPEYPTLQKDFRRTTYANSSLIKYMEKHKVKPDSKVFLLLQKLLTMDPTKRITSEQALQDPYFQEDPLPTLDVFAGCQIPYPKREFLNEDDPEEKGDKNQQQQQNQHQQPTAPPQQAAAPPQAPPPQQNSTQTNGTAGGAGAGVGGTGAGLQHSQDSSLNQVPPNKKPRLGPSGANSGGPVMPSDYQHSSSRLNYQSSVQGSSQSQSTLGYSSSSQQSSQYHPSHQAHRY
Chain of ALK tyrosine kinase receptor (Q9UM73 whole entry): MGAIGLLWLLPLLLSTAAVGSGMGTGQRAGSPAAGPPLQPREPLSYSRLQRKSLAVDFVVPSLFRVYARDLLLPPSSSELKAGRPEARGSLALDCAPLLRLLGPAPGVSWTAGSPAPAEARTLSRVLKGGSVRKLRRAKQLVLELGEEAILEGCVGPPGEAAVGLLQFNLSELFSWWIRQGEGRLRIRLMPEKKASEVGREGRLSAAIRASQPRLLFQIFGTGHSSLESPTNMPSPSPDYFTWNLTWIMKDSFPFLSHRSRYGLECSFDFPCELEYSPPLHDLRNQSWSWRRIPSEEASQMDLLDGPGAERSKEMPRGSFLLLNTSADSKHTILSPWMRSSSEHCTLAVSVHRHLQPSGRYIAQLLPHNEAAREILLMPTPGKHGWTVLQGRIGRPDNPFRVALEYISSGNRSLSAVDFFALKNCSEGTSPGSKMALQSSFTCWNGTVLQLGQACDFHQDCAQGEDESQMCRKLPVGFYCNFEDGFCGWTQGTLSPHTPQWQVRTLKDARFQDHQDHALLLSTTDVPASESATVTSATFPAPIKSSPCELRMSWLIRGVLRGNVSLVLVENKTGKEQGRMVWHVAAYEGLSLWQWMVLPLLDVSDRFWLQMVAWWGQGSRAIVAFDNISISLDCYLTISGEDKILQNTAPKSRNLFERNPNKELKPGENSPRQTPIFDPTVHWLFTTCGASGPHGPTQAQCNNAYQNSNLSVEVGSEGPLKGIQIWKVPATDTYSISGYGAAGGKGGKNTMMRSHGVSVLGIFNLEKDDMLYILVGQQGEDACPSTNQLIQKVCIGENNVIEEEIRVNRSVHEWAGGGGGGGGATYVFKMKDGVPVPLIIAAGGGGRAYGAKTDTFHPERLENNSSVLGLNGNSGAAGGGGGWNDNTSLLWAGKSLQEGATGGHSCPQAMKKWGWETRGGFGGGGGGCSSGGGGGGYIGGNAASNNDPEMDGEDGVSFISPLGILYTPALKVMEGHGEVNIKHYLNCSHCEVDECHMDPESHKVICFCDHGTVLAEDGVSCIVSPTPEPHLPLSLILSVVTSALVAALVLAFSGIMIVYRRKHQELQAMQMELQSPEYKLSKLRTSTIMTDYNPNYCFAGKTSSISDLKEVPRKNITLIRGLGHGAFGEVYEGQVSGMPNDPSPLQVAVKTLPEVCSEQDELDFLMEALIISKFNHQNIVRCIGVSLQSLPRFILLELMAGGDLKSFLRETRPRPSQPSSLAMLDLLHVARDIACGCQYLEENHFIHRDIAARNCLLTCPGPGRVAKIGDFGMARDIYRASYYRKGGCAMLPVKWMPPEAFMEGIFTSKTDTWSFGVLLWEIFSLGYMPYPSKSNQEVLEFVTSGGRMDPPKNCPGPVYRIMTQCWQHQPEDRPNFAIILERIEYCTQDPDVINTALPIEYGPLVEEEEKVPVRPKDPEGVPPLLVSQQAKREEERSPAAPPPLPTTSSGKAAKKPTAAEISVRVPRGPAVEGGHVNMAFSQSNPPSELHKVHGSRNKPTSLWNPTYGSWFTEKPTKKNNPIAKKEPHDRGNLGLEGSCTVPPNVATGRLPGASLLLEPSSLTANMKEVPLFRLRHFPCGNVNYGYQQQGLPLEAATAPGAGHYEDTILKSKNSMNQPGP
Chain of Cyclin-dependent kinase 8 (P49336 whole entry): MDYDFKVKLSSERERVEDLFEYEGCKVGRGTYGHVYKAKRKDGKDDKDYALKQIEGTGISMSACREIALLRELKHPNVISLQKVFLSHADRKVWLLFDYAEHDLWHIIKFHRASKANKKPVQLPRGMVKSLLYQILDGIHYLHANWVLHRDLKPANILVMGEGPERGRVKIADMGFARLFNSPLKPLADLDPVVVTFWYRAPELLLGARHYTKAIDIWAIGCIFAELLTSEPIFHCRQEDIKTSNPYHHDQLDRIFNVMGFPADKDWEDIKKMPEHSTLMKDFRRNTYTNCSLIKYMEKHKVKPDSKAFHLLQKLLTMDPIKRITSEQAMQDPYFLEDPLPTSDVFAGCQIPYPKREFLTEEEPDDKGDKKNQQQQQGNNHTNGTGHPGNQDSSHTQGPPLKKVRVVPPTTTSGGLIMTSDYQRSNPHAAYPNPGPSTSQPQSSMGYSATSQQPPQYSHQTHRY
Chain of Serine/threonine-protein kinase Nek2 (P51955 whole entry): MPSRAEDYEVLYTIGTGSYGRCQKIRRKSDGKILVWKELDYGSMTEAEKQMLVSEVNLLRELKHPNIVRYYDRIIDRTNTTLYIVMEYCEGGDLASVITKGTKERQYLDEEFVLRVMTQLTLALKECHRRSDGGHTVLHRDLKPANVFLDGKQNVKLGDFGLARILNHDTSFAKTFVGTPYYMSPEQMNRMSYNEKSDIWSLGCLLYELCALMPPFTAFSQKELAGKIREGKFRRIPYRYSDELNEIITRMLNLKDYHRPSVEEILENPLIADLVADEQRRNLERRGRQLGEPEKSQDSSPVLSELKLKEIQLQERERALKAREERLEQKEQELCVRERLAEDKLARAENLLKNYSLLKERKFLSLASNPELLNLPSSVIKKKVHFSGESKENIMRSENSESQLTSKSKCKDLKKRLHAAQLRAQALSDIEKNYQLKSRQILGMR
Chain of Tyrosine-protein kinase receptor TYRO3 (Q06418 whole entry): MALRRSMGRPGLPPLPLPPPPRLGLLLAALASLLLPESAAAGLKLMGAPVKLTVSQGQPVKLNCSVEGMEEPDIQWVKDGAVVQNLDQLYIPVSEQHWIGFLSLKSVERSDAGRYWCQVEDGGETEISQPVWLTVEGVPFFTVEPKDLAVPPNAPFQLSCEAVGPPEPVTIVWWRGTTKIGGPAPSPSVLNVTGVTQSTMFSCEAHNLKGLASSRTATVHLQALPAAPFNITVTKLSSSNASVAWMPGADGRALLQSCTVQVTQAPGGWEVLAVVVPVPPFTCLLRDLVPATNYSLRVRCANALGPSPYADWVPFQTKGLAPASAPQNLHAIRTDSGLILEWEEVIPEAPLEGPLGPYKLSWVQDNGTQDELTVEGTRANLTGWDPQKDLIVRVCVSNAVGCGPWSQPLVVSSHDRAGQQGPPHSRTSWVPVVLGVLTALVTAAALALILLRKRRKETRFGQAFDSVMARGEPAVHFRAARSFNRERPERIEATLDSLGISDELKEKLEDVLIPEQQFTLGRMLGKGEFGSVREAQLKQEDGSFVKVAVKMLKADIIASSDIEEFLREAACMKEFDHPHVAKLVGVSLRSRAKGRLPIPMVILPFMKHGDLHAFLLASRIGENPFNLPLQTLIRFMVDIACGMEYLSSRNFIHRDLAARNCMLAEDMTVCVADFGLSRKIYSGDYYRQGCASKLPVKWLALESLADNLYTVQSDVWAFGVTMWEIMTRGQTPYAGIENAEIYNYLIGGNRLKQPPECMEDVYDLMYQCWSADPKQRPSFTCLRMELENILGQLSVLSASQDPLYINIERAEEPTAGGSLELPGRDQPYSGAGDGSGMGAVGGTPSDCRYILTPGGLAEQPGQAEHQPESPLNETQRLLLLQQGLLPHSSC
Chain of Tyrosine-protein kinase BTK (Q06187 whole entry): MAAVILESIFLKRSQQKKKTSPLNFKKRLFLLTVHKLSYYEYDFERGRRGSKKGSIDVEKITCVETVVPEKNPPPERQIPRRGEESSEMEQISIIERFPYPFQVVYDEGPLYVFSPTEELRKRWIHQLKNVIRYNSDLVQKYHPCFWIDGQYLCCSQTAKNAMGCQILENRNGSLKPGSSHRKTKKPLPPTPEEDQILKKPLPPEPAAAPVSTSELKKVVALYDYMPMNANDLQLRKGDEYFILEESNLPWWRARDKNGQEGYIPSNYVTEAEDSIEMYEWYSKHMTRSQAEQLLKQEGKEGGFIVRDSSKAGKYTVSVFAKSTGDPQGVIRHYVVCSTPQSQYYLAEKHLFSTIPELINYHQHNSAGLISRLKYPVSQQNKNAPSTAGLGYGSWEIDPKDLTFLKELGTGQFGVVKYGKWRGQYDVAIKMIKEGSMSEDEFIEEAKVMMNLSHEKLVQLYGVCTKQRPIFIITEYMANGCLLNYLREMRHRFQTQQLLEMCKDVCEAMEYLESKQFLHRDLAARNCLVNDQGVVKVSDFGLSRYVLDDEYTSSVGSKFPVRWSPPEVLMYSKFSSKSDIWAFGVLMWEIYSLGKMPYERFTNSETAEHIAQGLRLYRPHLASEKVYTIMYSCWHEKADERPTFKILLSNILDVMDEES
Chain of Serine/threonine-protein kinase pim-1 (P11309 whole entry): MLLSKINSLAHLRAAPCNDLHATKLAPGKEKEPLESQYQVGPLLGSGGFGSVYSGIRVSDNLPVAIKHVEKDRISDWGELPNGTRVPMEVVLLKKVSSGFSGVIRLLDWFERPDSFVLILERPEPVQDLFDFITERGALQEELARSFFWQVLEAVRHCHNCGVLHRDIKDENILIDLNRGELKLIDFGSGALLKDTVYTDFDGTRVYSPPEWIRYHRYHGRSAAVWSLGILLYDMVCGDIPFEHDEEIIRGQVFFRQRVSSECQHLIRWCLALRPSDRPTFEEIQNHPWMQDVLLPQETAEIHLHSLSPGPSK

**Q.** `COc1ccc(-c2nnc(SCC(=O)c3cccc(Br)c3)[nH]2)cc1` was tested. Which IC50 [1] did it give?
**A.** The IC50 was > 99 µM (inactive).

**Q.** And the IC50 [2]?
**A.** The IC50 was > 99 µM (inactive).

**Q.** `Cc1cccc(NC(=O)c2[nH]nc([N+](=O)[O-])c2Br)c1C` was tested. Which IC50 [3] did it give?
**A.** The IC50 was 4.1 µM (active).

**Q.** And the IC50 [4]?
**A.** Its IC50 is 1.41 µM (active).

**Q.** `COc1ccc(-c2nnc(SC(C)C(=O)NCc3ccc4c(c3)OCO4)n2Cc2ccco2)cc1` (stereo not drawn) was tested. Which EC50 [5] did it give?
**A.** The EC50 was 24.3 µM (active).

**Q.** `O=c1[nH]n2ccccc2c1Br` was tested. Which Ki [6] did it give?
**A.** Its Ki is 2.51 µM (active).

**Q.** What about the Ki [7] of the same molecule?
**A.** The Ki was 5.01 µM (active).

**Q.** And the Ki [8]?
**A.** The Ki was 2.51 µM (active).

**Q.** And the Ki [9]?
**A.** The Ki was 5.01 µM (active).

**Q.** What about the Ki [10] of the same molecule?
**A.** Its Ki is 3.98 µM (active).

**Q.** And the Ki [11]?
**A.** The Ki was 5.01 µM (active).

**Q.** And the Ki [12]?
**A.** The Ki was 3.98 µM (active).

**Q.** What about the Ki [13] of the same molecule?
**A.** Its Ki is > 6.31 µM (inactive).

**Q.** What about the Ki [14] of the same molecule?
**A.** Its Ki is 3.98 µM (active).

**Q.** And the Ki [15]?
**A.** The Ki was 2.51 µM (active).

**Q.** What about the Ki [16] of the same molecule?
**A.** The Ki was 3.98 µM (active).

**Q.** What about the Ki [17] of the same molecule?
**A.** The Ki was 2 µM (active).

**Q.** And the Ki [18]?
**A.** The Ki was 0.631 µM (active).

**Q.** What about the Ki [19] of the same molecule?
**A.** The Ki was 2 µM (active).

**Q.** What about the Ki [20] of the same molecule?
**A.** The Ki was 3.98 µM (active).

**Q.** What about the Ki [21] of the same molecule?
**A.** Its Ki is 2.51 µM (active).

**Q.** What about the Ki [22] of the same molecule?
**A.** Its Ki is 3.16 µM (active).

**Q.** And the Ki [23]?
**A.** The Ki was 5.01 µM (active).

**Q.** What about the Ki [24] of the same molecule?
**A.** Its Ki is 3.16 µM (active).

**Q.** What about the Ki [25] of the same molecule?
**A.** The Ki was 3.98 µM (active).

**Q.** What about the Ki [26] of the same molecule?
**A.** Its Ki is 3.16 µM (active).

**Q.** And the Ki [27]?
**A.** Its Ki is 1.58 µM (active).

**Q.** And the Ki [28]?
**A.** Its Ki is 3.16 µM (active).
